# Patent publication US20080118494A1, “Compositions For Detection Of Latent Hiv Reactivation And Methods Of Using The Same” (priority 2004, published 2008)
# System: latent HIV-1 infection in human PBMCs
# Assay: Reactivation of latent HIV-1 in in vitro infected, EGFP-negative sorted human PBMCs
# Assay type: cell-based
# Settings: representative donor, 24 h post stimulation, untreated background 0.23%
# Experimental: PBMCs from three different donors were infected with HIV-1 NLENG1-IRES and on day three post infection were treated with indinavir to inhibit de novo infection. On day seven following infection, HIV-1 expressing EGFP^+ cells were removed from the cultures using fluorescence activated cell sorting. (A) Following the sorting procedure, the EGFP-negative cells were cultured in supplemented RPMI 1640 to determine levels of spontaneous reactivation (Control), stimulated with anti-CD3 antibody clone UCHT1 (CD3), the costimulatory anti-CD28 antibody clone CD28.2 (cCD28) and with a combination of these two antibodies (cCD28/CD3). […] Numbers indicate the percentage of EGFP positive cells and the mean channel fluorescence intensity of the EGFP-positive cell population. […]
# In vitro generation and analysis of HIV-1 latency in PBMCs. […] In the absence of IL-2, the cells were cultured for seven days following infection and then subjected to fluorescence activated cell sorting (FACS) to remove EGFP positive, HIV-1 expressing cells. The EGFP negative cell fraction was then activated with the indicated stimuli and reactivation of latent HIV-1 expression was measured 24 h post stimulation by determining EGFP fluorescence using FACS analysis. […]
smiles,measurement,value
"CCCCCCCCCCCCCC(=O)O[C@@H]1[C@@H](C)[C@@]2(O)[C@@H](C=C(CO)C[C@]3(O)C(=O)C(C)=C[C@@H]23)[C@@H]2C(C)(C)[C@]12OC(C)=O [PMA, 13-phorbol-12-myristate acetate]",HIV-1 reactivation as percentage of EGFP+ cells,0.60%
